# Reference: patent US20220389373A1, “METHODS AND SYSTEMS FOR GENERATING THREE-DIMENSIONAL BIOLOGICAL STRUCTURES” (Fluicell AB, priority 2019, published 2022)
# Test system: HaCaT cells
# Experiment: Retinoic acid treatment of bioprinted psoriasis-like skin model, CK10 immunofluorescence
# Assay type: cell-based, human
# Conditions: printed stripes of differentiated (cytokine-treated) and non-differentiated HaCaT cells; RA 1 μM in growth media for 20 hrs; versus solvent control
structure (smiles),measurement,value
"CC1=C(/C=C/C(C)=C/C=C/C(C)=C/C(=O)O)C(C)(C)CCC1 [retinoic acid, all-trans retinoic acid]",decrease in CK10 expression for the treated samples,approximately 20%
